This passage reports melting point and IC50 results from patent publication US20080221114A1, “2-(Cyclic Aminocarbonyl) Indoline Derivative and Medicinal Composition Containing the Same” (priority 2005, published 2008).

Structures are written as SMILES.

The target of series [1] is T1, mitochondrial benzodiazepine receptor (MBR) (Rattus norvegicus, UniProt P16257).
T1 construct: from tissue; host or cells: kidney of male Wistar rats (crude membrane preparation)
The series can be described thus: Binding assay of mitochondrial benzodiazepine receptor (MBR), [3H]4'-chlorodiazepam (Ro5-4864), rat kidney membrane-preparation. Conditions: rat kidney membranes, [3H]4'-chlorodiazepam 0.5 nM, 0° C. for 150 minutes. Here is the method: The binding assay of central-type benzodiazepine receptor (CBR) and the preparation of receptor membrane-preparation were carried out according to the partially modified method of Braestrup, C. et al. [see; Br. J. Psychiatry, 133, 249-260 (1978)] with a minor modification; the binding assay of mitochondrial benzodiazepine receptor (MBR) and the preparation of receptor membrane-preparation were carried out according to the method of Schoemaker, H [see; J. Pharmacol. Exp. Ther., 225, 61-69 (1983)] with a minor modification.
CBR and MBR membrane-preparations were prepared from forebrain (CBR) and kidney (MBR) of male Wistar strain rats according to the following procedure, respectively.
To the forebrain of rat, 20 volumes of ice-cold 0.32 M sucrose solution to wet-weight of the tissue (1:20, wet-weight/vol) was added and homogenized, and then the homogenate was centrifuged at 900×g for 10 minutes. The supernatant was centrifuged at 11,500×g for 20 minutes, a buffer I for the binding assay (50 mM Tris-hydrochloric acid buffer, pH 7.5) was added to the resultant precipitate, and the mixture was homogenized, and then it was centrifuged at 30,000×g for 10 minutes. The resulting precipitate was washed 3 times according to the same operation, suspended in the buffer I (1 g of wet-weight of tissue/10 ml) and used as a CBR membrane-preparation for the binding assay. The CBR membrane-preparation was stored at −80° C. until use, and on the day of the assay, it was thawed and suspended in the buffer for use. On the other hand, kidney of rat was homogenized in 20 volumes of ice-cold buffer II for the binding assay to wet-weight of the tissue (1:20, wet-weight/vol) (50 mM sodium phosphate-potassium phosphate buffer solution containing 100 mM sodium chloride, pH 7.4), and then filtrated through 4 layers of gauze, and the filtrate was centrifuged at 40,000×g for 20 minutes. The resulting precipitate was suspended in the buffer II (1 g of wet-weight of tissue/50 ml) and used as a MBR membrane-preparation for the binding assay.
As a labeled ligand and a non-labeled ligand, [^3H]flunitrazepam (final concentration: 1 nM) and diazepam (final concentration: 20 μM) were used respectively, for the CBR binding assay, and [^3H]4′-chlorodiazepam (Ro5-4864, chemical name: 7-chloro-1,3-dihydro-1-methyl-5-(4-chloro-phenyl)-2H-1,4-[…]) (final concentration: 0.5 nM) and diazepam (final concentration: 50 μM) were used respectively, for the MBR binding assay. The binding assay of CBR was carried out by incubating at 0° C. for 30 minutes, while that of MBR was at 0° C. for 150 minutes.
The receptor binding assay was carried out in the following procedure. The test compound which the concentration was known, a tritium labeled ligand, a receptor membrane-preparation and the buffer I or II for the binding assay were added to a 96-well microplate in the total volume was 0.2 ml, and when the receptor membrane-preparation was added, the reaction started. After the incubation, the labeled ligand binding to the receptor was filtrated through a filter plate (UNI FILTER-96GF/B, PerkinElmer, the U.S.) using a cell harvester (PerkinElmer, the U.S.) to stop the reaction. The filter was immediately washed 6 times with 0.3 ml of the ice-cold buffer [50 mM Tris-hydrochloric acid buffer (pH 7.7)]. After 30 μl of liquid scintillation cocktail (MICROSCINTI 20, PerkinElmer, the U.S.) was added to each well on the dried filter plate, the radioactivity was measured with a TopCount. The specific binding amount was obtained by subtracting the non-specific binding amount which was simultaneously measured in the presence of non-labeled ligand from the total binding amount. The concentration that the test compound could decrease the specific binding amount of the labeled ligand to 50% of the amount (IC50 value) was analyzed using nonlinear least-squares method.

As usually defined, the melting point is the temperature, or range, at which the solid turns liquid. Molecule `Cn1nc(N2c3ccccc3C[C@H]2C(=O)N2CCCCCCC2)ccc1=O` (hydrate or solvate) [Example 119, (S)-1-(1-methyl-6-oxo-1,6-dihydropyridazin-3-yl)-2-[(1-perhydroazocinyl)carbonyl]indoline] yielded a melting point of 179 to 182 °C.

Turning to `C[C@H]1CCCN(C(=O)[C@@H]2Cc3ccccc3N2c2ccc(=O)n(CC(=O)c3ccccc3)n2)C1` (hydrate or solvate) [Example 124], the melting point was 255 °C (dec.).

Molecule `C[C@H]1CCCN(C(=O)[C@@H]2Cc3ccccc3N2c2ccc(=O)n(CC3CCC3)n2)C1` (hydrate or solvate) [Example 125] showed a melting point of 221 to 223 °C.

What is called IC50 is the midpoint of a concentration-inhibition curve. Read a low IC50 as greater potency in that assay. `O=C(C1Cc2ccccc2N1c1ncccn1)N1CCCC(F)(F)C1` (racemic) [Example 48] showed a melting point of 172 to 174 °C. Besides, in series [1], the IC50 was determined as 77 nM.

`O=C(C1Cc2ccccc2N1c1ncccn1)N1CCCC(C(F)(F)F)C1` (racemic) [Example 49] yielded a melting point of 159 to 163 °C. Besides, the IC50 in series [1] is 3.98 nM.

In turn, `O=C(C1Cc2ccccc2N1c1ncccn1)N1CCCC(CO)C1` (racemic) [Example 50] yielded a melting point of 124 to 128 °C. In series [1], this molecule showed an IC50 of 92.6 nM.

Molecule `O=C(C1Cc2ccccc2N1c1ncccn1)N1CCCC(c2ccccc2)C1` (racemic) [Example 51] yielded a melting point of 145 to 151 °C. The molecule also gave an IC50 in series [1] of 21.2 nM.

Consider `CC1CC(C)CN(C(=O)C2Cc3ccccc3N2c2ccncn2)C1` (racemic) [Example 58], for which the melting point lay in the range of 107 to 109 °C. This molecule also had an IC50 in series [1] of 4.31 nM.

The molecule `CC1CCCN(C(=O)C2Cc3cc(F)ccc3N2c2cccnn2)C1` (racemic) [Example 84] gave a melting point of 155 to 157 °C. In series [1], this molecule had an IC50 of 5.58 nM.

Turning to `COc1cccc2c1CC(C(=O)N1CCCC(C)C1)N2c1cccnn1` (racemic) [Example 85], the melting point is 160 to 162 °C. Also, in series [1], the IC50 is 3.69 nM.

The molecule `CC1CCCN(C(=O)C2Cc3cc(F)ccc3N2c2ccc(=O)n(C)n2)C1` (racemic) [Example 132] displayed a melting point of 217 to 219 °C. The IC50 in series [1] stood at 10.1 nM.

`COc1cccc2c1CC(C(=O)N1CCCC(C)C1)N2c1ccc(=O)n(C)n1` (racemic) [Example 133] returned a melting point of 181 to 182 °C. In series [1], this molecule came in with an IC50 of 3.95 nM.

Regarding `COc1ccc2c(c1)CC(C(=O)N1CCCC(C)C1)N2c1ccc(=O)n(C)n1` (racemic) [Example 134], the melting point lay within 248 to 250 °C. Further, the IC50 in series [1] came out at 33.8 nM.

As to `COc1ccc2c(c1)N(c1ccc(=O)n(C)n1)C(C(=O)N1CCCC(C)C1)C2` (racemic) [Example 135], the melting point lay in the range of 182 to 184 °C. Moreover, the 50% inhibitory concentration (IC50) in series [1] was determined as 13.5 nM.

As to `C[C@@H]1C[C@H](C)CN(C(=O)C2Cc3ccccc3N2c2nc3ccccc3o2)C1` (relative stereo) [Example 5], the melting point lay in the range of 199 to 201 °C. The molecule also displayed a concentration for half-maximal inhibition (IC50) in series [1] of 2.28 nM.

With `CCc1cnc(N2c3ccccc3CC2C(=O)N2C[C@H](C)C[C@H](C)C2)nc1` (relative stereo) [Example 8], the melting point fell in the range of 147 to 149 °C. The molecule further yielded an IC50 in series [1] of 2.05 nM.

Molecule `C[C@@H]1C[C@H](C)CN(C(=O)C2Cc3ccccc3N2c2ccc(F)cn2)C1` (relative stereo) [Example 10] gave a melting point of 139 to 141 °C. Moreover, the half-inhibitory concentration (IC50) in series [1] was 1.14 nM.

`Cc1ccc(N2c3ccccc3CC2C(=O)N2C[C@H](C)C[C@H](C)C2)nc1` (relative stereo) [Example 11] displayed a melting point of 137 to 139 °C. In series [1], this molecule registered an IC50 of 1.84 nM.

In the case of `CC1CCCN(C(=O)C2Cc3ccccc3N2c2ncccn2)C1` (stereo not shown) [Example 6], the melting point was 156 to 158 °C. For the same molecule, the IC50 in series [1] amounted to 2.92 nM.

`O=C(C1Cc2ccccc2N1c1ncccn1)N1CCCCC1` (stereo not shown) [Example 7] displayed a melting point of 149 to 151 °C. Besides, the IC50 in series [1] stood at 123 nM.

Consider `C[C@H]1CCCN(C(=O)[C@@H]2Cc3ccccc3N2c2nccc3ccccc23)C1` [Example 12], for which the melting point fell in the range of 134 to 136 °C. The IC50 in series [1] was determined as 1.37 nM.

Molecule `C[C@@H]1C[C@H](C)CN(C(=O)[C@@H]2Cc3ccccc3N2c2nccc3ccccc23)C1` [Example 13] gave a melting point of 173 to 175 °C. In series [1], this molecule gave an IC50 of 2.08 nM.

In turn, `C[C@H]1CCCN(C(=O)[C@@H]2Cc3ccccc3N2c2nc3ccccc3s2)C1` [Example 14] yielded a melting point of 165 to 166 °C. In series [1], this molecule yielded an IC50 of 0.823 nM.

Take `C[C@@H]1C[C@H](C)CN(C(=O)[C@@H]2Cc3ccccc3N2c2nc3ccccc3s2)C1` [Example 15]: the melting point lay in the range of 170 to 173 °C. The molecule further came in with an IC50 in series [1] of 1.46 nM.

`C[C@@H]1CCCN(C(=O)[C@@H]2Cc3ccccc3N2c2nc3ccccc3o2)C1` [Example 16] yielded a melting point of 220 to 222 °C. The molecule further had an IC50 in series [1] of 1.17 nM.

Molecule `C[C@H]1CCCN(C(=O)[C@@H]2Cc3ccccc3N2c2nc3ccccc3o2)C1` [Example 17, (S)-1-(1,3-benzoxazol-2-yl)-2-[[(S)-3-methylpiperidin-1-yl]carbonyl]indoline] showed a melting point of 191 to 193 °C. This molecule also returned a concentration for half-maximal inhibition (IC50) in series [1] of 0.638 nM.

Consider `C[C@@H]1C[C@H](C)CN(C(=O)[C@@H]2Cc3ccccc3N2c2nc3ccccc3o2)C1` [Example 18], for which the melting point is 165 to 167 °C. Besides, in series [1], the IC50 was determined as 1.47 nM.

Turning to `C[C@@H]1C[C@H](C)CN(C(=O)[C@@H]2Cc3ccccc3N2c2cncc(Cl)n2)C1` [Example 21], the melting point is 174 to 175 °C. The same molecule had an IC50 in series [1] of 1.23 nM.

`C[C@@H]1CCCN(C(=O)[C@@H]2Cc3ccccc3N2c2ncccn2)C1` [Example 22] had a melting point of 151 to 153 °C. The same molecule came in with an IC50 in series [1] of 19.3 nM.

`CC1CC(C)CN(C(=O)[C@@H]2Cc3ccccc3N2c2ncccn2)C1` (stereo partly shown) [Example 25] gave a melting point of 237 to 239 °C. In series [1], this molecule gave an IC50 of 6.73 nM.

In turn, `C[C@H]1CCCN(C(=O)[C@@H]2Cc3ccccc3N2c2cnc3ccccc3n2)C1` [Example 26] came in with a melting point of 160 to 161 °C. The molecule further displayed an IC50 in series [1] of 0.851 nM.

The molecule `C[C@@H]1C[C@H](C)CN(C(=O)[C@@H]2Cc3ccccc3N2c2cnc3ccccc3n2)C1` [Example 27] displayed a melting point of 156 to 157 °C. This molecule also showed an IC50 in series [1] of 1.66 nM.

In turn, `C[C@H]1CCCN(C(=O)[C@@H]2Cc3ccccc3N2c2nsc3ccccc23)C1` [Example 28] registered a melting point of 176 to 178 °C. Further, the IC50 in series [1] came out at 5.72 nM.

`C[C@@H]1C[C@H](C)CN(C(=O)[C@@H]2Cc3ccccc3N2c2ccc([N+](=O)[O-])cn2)C1` [Example 30] came in with a melting point of 208 to 210 °C. Besides, in series [1], the IC50 was determined as 1.29 nM.

On to `C[C@H]1CCCN(C(=O)[C@@H]2Cc3ccccc3N2c2cccnc2)C1` [Example 32], for which the melting point was 114 to 115 °C. This molecule returned an IC50 in series [1] of 0.727 nM.

Take `C[C@H]1CCCN(C(=O)[C@@H]2Cc3ccccc3N2c2ccc(Cl)nn2)C1` [Example 35]: the melting point lay in the range of 183 to 186 °C. Also, the IC50 in series [1] turned out to be 1.19 nM.

As for `CCCCn1nc(N2c3ccccc3C[C@H]2C(=O)N2CCC[C@H](C)C2)ccc1=O` [Example 74], the melting point lay within 186 to 188 °C.
